Results reported in ChEMBL document CHEMBL1145656, “Production of cytotoxic canthin-6-one alkaloids by Ailanthus altissima plant cell cultures” (J Nat Prod, 1983).
Converted amounts (≈) assume the structure as drawn.

Test: Cytotoxicity against GPK cells by [3H]thymidine incorporation assay
Assay type: functional, cell-based
Details: Cavia porcellus

Row | Compound | IC50
1 | O=c1ccc2nccc3c4ccccc4n1c23 [CANTHIN-6-ONE] | 1.11 µg/mL (≈ 5.04 µM)
2 | COc1cnc2ccc(=O)n3c4ccccc4c1c23 | 5.76 µg/mL (≈ 23 µM)
3 | COc1cc2nccc3c4ccccc4n(c1=O)c23 [5-METHOXYCANTHINONE] | 5.44 µg/mL (≈ 21.7 µM)
4 | O=c1ccc2c3c(cc[n+]2[O-])c2ccccc2n13 | 4.21 µg/mL (≈ 17.8 µM)
